pIC50: −log10 of the molar value.
Experiments:
PDE10A (human) = target: T1, PDE10A (human) (Homo sapiens, UniProt Q9Y233); assay: Measurement of PDE activity (HTRF cAMP kit), PDE10A human; type: biochemical; conditions: Table 1
T1 construct: purchased BPS Bioscience
Method: The recombinant PDE proteins are used in in vitro enzymatic reaction for measurement of PDE activity. These recombinant proteins, including PDE10A (human, rat and mouse PDE10) and isoforms of PDEs 1, 3, 4, and 5, were purchased from commercial vendor BPS Bioscience. The enzymatic activity of PDEs was determined by cAMP measurement kit from CisBio (IBA) using HTRF technology.
The PDE enzymatic reaction was carried out in assay buffer (20 mM Tris-HCl pH7.5, 10 mM MgCl2, 0.1% bovine serum albumin) containing enzyme and substrate. The PDE enzymes concentration ranged from 10 pM-250 pM, depending on each enzyme's specific activity. The substrate cyclic nucleotide (cAMP or cGMP) concentration used in the assay was 20 nM for PDE10, and 100 nM for other PDEs. The inhibitory effect of compound was determined by incubating various concentration of inhibitor in the enzymatic assay. Typically, compound was serial diluted in DMSO then further diluted in assay buffer. Next, the compound at varying concentration was mixed with PDE enzyme. The reaction was initiated by addition of cyclic nucleotide substrate, and incubated for 60 minutes at 29 C. The reaction was stopped by addition of lysis buffer from assay kit. The cAMP-d2 and anti-cAMP cryptate in the lysis buffer detected the level of cAMP left from the PDE hydrolysis reaction. […]

rats [1] = conditions: cited from earlier work
rats [2] = conditions: cited from earlier work; remark: listed apart in the source
rats [3] = conditions: cited from earlier work; remark: listed apart in the source

T1 sequence (Q9Y233 whole entry): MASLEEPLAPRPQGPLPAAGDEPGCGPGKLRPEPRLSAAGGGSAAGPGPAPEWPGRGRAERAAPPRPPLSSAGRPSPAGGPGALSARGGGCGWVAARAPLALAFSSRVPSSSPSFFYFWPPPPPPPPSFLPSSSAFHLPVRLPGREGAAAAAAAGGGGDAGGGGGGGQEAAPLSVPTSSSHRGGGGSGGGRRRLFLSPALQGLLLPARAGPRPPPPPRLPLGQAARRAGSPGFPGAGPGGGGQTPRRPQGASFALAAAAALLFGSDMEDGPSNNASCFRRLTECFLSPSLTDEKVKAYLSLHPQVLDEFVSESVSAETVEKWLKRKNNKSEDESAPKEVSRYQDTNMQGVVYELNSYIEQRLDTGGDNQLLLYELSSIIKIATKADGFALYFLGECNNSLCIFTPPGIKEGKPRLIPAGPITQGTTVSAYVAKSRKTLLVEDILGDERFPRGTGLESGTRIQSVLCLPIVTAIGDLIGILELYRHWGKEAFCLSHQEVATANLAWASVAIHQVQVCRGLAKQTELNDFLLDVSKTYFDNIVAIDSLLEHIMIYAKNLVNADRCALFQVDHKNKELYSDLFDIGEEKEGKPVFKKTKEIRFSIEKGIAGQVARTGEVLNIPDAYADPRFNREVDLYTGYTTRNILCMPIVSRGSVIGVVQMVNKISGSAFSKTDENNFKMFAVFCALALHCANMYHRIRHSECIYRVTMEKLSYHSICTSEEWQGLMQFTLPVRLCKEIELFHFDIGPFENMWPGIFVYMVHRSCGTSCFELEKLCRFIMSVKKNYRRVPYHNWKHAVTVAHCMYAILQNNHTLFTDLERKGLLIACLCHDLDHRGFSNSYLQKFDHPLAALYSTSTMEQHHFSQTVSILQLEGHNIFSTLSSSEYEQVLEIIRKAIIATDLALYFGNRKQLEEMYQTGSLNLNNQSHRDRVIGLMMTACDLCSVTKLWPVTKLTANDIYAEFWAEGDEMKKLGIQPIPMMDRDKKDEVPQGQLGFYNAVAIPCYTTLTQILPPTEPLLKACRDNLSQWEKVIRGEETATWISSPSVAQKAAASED

Row | Compound | pIC50 (PDE10A (human)) | hyperactivity in rats induced by PCP (rats [1]) | reduction of amphetamine-induced hyperactivity (rats [2]) | catalepsy on its own (rats [3]; papaverine alone) | cataleptic effect of the D2 receptor antagonist haloperidol (rats [3]; together with haloperidol)
1 | O=c1c2cccc(-c3cccc(O)c3)c2cnn1CCc1ccc2ccccc2n1 [Example 220, 5-(3-hydroxyphenyl)-2-[2-(quinolin-2-yl)ethyl]phthalazin-1(2H)-one] | > 7.00 | – | – | – | –
2 | COc1ccc(Cc2nccc3cc(OC)c(OC)cc23)cc1OC [Papaverine, papaverine] | – | reduced hyperactivity | insignificant | did not cause catalepsy | potentiated the cataleptic effect
3 | anti 8-((3 S)-3-hydroxypiperidin-1-yl)-2-(2-(quinolin-2-yl)cyclopropyl)isoquinolin-1(2H)-one (2E)-but-2-enedioate [Example 244] | > 7.00 | – | – | – | –

— US9657034B2, “Substituted furo[3,2-c]pyridines, thieno[3,2-c]pyridines, thieno[2,3-d]pyridazines and pyrido[3,4-d]pyridazines as phosphodiesterase type 10A inhibitors” (AbbVie Deutschland GmbH & Co. KG, priority 2011, dated 2017)
